In article PMC11761228, “Cinnamic Acid Compounds (p-Coumaric, Ferulic, and p-Methoxycinnamic Acid) as Effective Antibacterial Agents Against Colistin-Resistant Acinetobacter baumannii” (Antibiotics, 2025):
“Also recorded” adds a separate entry of the source.

How the values were obtained:
[1] = test system: COLR-Ab4 isolate; experiment: Cytoplasmic membrane permeability assay (A260 of supernatant); type: cell-based, Acinetobacter baumannii; conditions: 3 h
Protocol: A cell membrane permeability assay was carried out in accordance with the methods described by Köse (2023). […] The bacteria were firstly incubated in MHB at 35 ± 2 °C overnight. Subsequently, the bacterial culture was centrifuged at 4000× g at 15 min, after which the pellet was washed twice with PBS. […] A suspension containing PBS and bacteria was used as a control. All samples were incubated at 35 ± 2 °C for 3 h, centrifuged at 13,400× g for 15 min, and the supernatant was harvested. The absorbance (A)260 of the supernatant was quantified using a UV-Vis spectrophotometer (Agilent Technologies, Santa Clara, CA, USA) to determine the amount of nucleic acid released from the cytoplasm. Each experiment was repeated three times.

[2] = test system: biofilm formation of COLR-Ab isolates; experiment: Antibiofilm activity, microtiter plate-based crystal violet technique; type: cell-based, Acinetobacter baumannii; conditions: for Reduction of biofilm formation: dose range 512–32 μg/mL
Protocol: Following the incubation period, the microtiter plates were gently washed three times with PBS. Subsequently, 200 µL of methanol (99%) was added to each well and left for 15 min. The methanol was then removed from the wells and the plate was left to dry for approximately 30 min, thus completing the fixation process. Then, 200 µL of 0.1% CV solution was added to each well and incubated for 20 min at room temperature. The plates were washed three times with PBS in order to remove the excess stain, and then 150 μL of 95% ethanol was added to the wells and incubated for 20 min. The optical density of the CV-stained biofilm was measured at a wavelength of 575 nm using a Thermo Labsystem Multiscan Spectrum microtiter plate reader (Thermolabsystem, Chantilly, VA, USA). Each experiment was conducted in triplicate.
In order to evaluate the antibiofilm activity of COL, p-CA, FA, and p-MCA, a 96-well microtiter plate-based CV test was carried out, with minor modifications to the methods previously described by Kırmusaoglu (2019) and Haney et al. (2021). Briefly, bacteria were inoculated into MHB medium containing 0.2% glucose and incubated at 37 °C for 16–20 h. The bacterial suspension, adjusted to 0.5 McFarland using the same medium, was prepared to a final concentration of 5 × 10^5 CFU/mL and inoculated into 96-well flat-bottom microtitre plates. […] Wells containing only medium were used as negative controls (MHB), and wells containing only medium and bacteria were used as growth controls. The plates were then incubated overnight at 35 ± 2 °C in a normal atmosphere. Following incubation, CV staining procedures were carried out in a similar manner to Section 4.4.
The antibiofilm index was calculated using the following formula:% Biofilm Mass = (100 × Sample OD575/Growth Control OD575)

[3] = test system: HUVEC cells; experiment: CCK-8 cell viability assay; type: cell-based, human; conditions: 0.78125–200 μg/mL, 24 h
Protocol: 293T [HEK-293] (ATCC® CRL-1573), HUVEC (ATCC CRL-1730 ™, human umbilical vein endothelial cells) and Vero (ATCC® CCL-81™, African green monkey kidney epithelial cells) cells were used in this study. Cells were cultured in RPMI-1640 medium supplemented with 10% fetal bovine serum, 0.1 mM non-essential amino acids, […], 2 mM L-glutamine, and 10 μg/mL gentamicin in a humidified atmosphere of 5% CO2, 95% air at 37 °C. After growing to approximately 80% confluence, the cells were detached with 0.25% (w/v) trypsin-EDTA and then subcultured. The cells were stored in a deep freezer at −80 °C in a solution prepared with 95% medium and 5% DMSO.
Cell viability was assessed according to the manufacturer’s protocol using a Cell Counting Kit-8 (CCK-8) (KTA1020, Abbkine, Atlanta, GA, USA). The assay is based on the reduction of 2-(2-methoxy-4-nitrophenyl)-3-(4-nitrophenyl)-5-(2,4-disulfophenyl)-2H-tetrazolium monosodium salt (WST-8) by cellular mitochondrial dehydrogenase. Cells were seeded in 96-well plates at a final concentration of 5 × 10^3 cells/well in 100 μL complete culture medium and were allowed to attach for 24 h. […] Immediately after the treatment, cell viability in a single column was determined and recorded as time zero (T0). The plain medium with 1% FBS was used as a negative control, whereas ethanol was used as solvent control. Each treatment was performed in four well replicates. At the end of the incubation, the medium was gently aspirated to terminate the experiment, a total volume of 10 μL (5 mg/mL) of CCK-8 solution was added to each well and further incubated under the same conditions for 4 h. The absorbances at 450 nm were measured in a microplate reader (Thermo Labsystem, Waltham, MA, USA), using wells without cells as background. The sample readings were calculated by subtracting the average of background absorbances. […] Cell viability was calculated using the following formula: Cell viability (%) = (ODtreatment − ODblank)/(ODcontrol − ODblank) × 100% [78].

[4] = test system: COLR-Ab4 isolate; experiment: Scanning electron microscopy of cell morphology; type: cell-based, Acinetobacter baumannii; conditions: COLR-Ab4, MIC concentrations, 3 h
Protocol: To examine the potential impact of the antimicrobial agents on the cell morphology of the COLR-Ab4 isolate, SEM studies were carried out according to the method Bendali et al. (2008), with minor modifications. […] Bacteria incubated without treatment with agents were used as controls. After incubation, the suspension was centrifuged for 10 min at 4000× g. The bacteria were washed twice with 0.1 M phosphate-buffered solution (PBS, pH 7.0). The pellet was fixed in 2.5% glutaraldehyde solution and kept for at 4 °C for 2 h. After washing the bacteria again twice with PBS, the sample was fixed in 1% osmium tetroxide solution for 1 h. Then, the samples were dehydrated through suspension in increasing concentrations of ethanol (30, 50, 70, 80, 90, and 100%) for 10 min each. The ethanol was then replaced by 100% acetone. Finally, the samples were fixed on an SEM support, coated with gold/palladium using sputtering in a vacuum, and examined using SEM (Zeiss LEO 1430, Cambridge, UK).

Row | Compound | Increase in absorbance values at 260 nm vs control ([1]; COLR-Ab4, MIC concentration) [fold] | Increase in absorbance values at 260 nm vs control ([1]; COLR-Ab4, MIC/2 concentration) [fold] | Increase in absorbance values at 260 nm vs control ([1]; COLR-Ab4, MIC/4 concentration) | Inhibition of biofilm formation ([2]; dose range 2048–128 μg/mL, COLR-Ab1, 3, 4, 5) | Cytotoxicity (doses with cytotoxic effects) [3] | Cell morphology by SEM [4] | Increase in biofilm formation ([2]; COLR-Ab3, doses of 16–8 μg/mL) [%] | Reduction of biofilm formation ([2]; COLR-Ab1, 3, 4, 5)
1 | COc1cc(/C=C/C(=O)O)ccc1O [FA, ferulic acid] | 1.66 | 1.52 | 1.14 fold | 28.1–77% | did not induce cytotoxic effects; also recorded: did not exhibit any cytotoxic effect | certain morphological changes in bacterial cells | – | –
2 | O=C(O)/C=C/c1ccc(O)cc1 [p-CA, p-coumaric acid] | 1.9 | 1.71 | 1.19 fold | – | cytotoxicity in HUVEC cells at concentrations of 200 μg/mL (p < 0.01), 100 μg/mL (p < 0.05), and 50 μg/mL (p < 0.05); also recorded: cytotoxic at 200 (p < 0.01), 100 (p < 0.05), and 50 (p < 0.05) μg/mL | certain morphological changes in bacterial cells | 20 | 37.3–77.5%
3 | COc1ccc(C=CC(=O)O)cc1 [p-MCA, p-methoxycinnamic acid] | 1.34 | 1.15 | no statistically significant differences | – | cytotoxicity in these cells at concentrations of 200, 100, and 50 μg/mL; also recorded: cytotoxic effects in HUVEC cells at doses of 200, 100, and 50 μg/mL | certain morphological changes in bacterial cells | – | 40.3–77.2%
